The results in this text go back to patent US20260327628A1, “AN RNA APTAMER THAT BINDS TO ASP7967 OR AN ANALOGUE THEREOF” (priority 2022, published 2026).

The subject of one data set is HEK293 cells. Description: MTT (cell proliferation) assay. It counts as cell-based. To be noted: up to 10 μM, 18 h. How it is done:
MTT assay was performed using MTT Cell Count Kit (Nacalai Tesque). HEK293 cells were trypsinized, diluted to 2.4×10^5 cells ml^−1 and 100 μl per well were seeded onto a 96-well plate. The cells were cultured for 24 h at 37° C. under 5% CO2. The medium was replaced with fresh medium (DMEM-FBS with 0.1% (v/v) DMSO) with 0, 2, 5, or 10 μM of ASP2905 or ASP7967. The cells were cultured for additional 18 h at 37° C. under 5% CO2. Subsequently, 10 μl of MTT solution was added to each well, and the cells were incubated for 3 h at 37° C. under 5% CO2. Next, 100 μl of the Solubilization Solution was added to each well. To dissolve the precipitated formazan, the plate was incubated for 2 h at 37° C. Absorbance at 570 nm (reference wavelength: 700 nm) was measured by Infinite M1000 PRO microplate reader (Tecan). The reported values are averages of four replicate wells. The assay was repeated three times to ensure reproducibility.

Data set [1] deals with aptazyme-based riboswitches (AC17-4). Briefly: cells. It counts as cell-based. Particulars: Homo sapiens, 48 h; ligand as low as 5 μM in culture medium, HEK293 cells; read-out: activation of gene expression. How it is done:
HEK293 cells were cultured in Dulbecco's modified Eagle's medium (DMEM) supplemented with 10% heat-inactivated FBS (Gibco) containing 2 mM L-glutamine and 100 units ml^−1 of penicillin-streptomycin (DMEM-FBS). Cells were kept in a 37° C. incubator with 5% CO2 and passaged regularly upon reaching 90% confluency. Approximately 20 h prior to transfection, the cells were trypsinized, diluted to ~2.7×10^5 cells ml^−1 and 100 μl per well were seeded onto a 96-well plate. Cells in each well were cotransfected with 100 ng of the EGFP-aptazyme plasmid and 20 ng of pCMV-mCherry^27 (transfection control) using 0.3 μl of TransIT-293 Transfection Reagent (Mirus) according to the manufacturer's instructions. […] Forty-eight hours after transfection, the medium in each well was replaced with 100 μl of phosphate buffered saline (PBS), and fluorescence intensity was measured by Infinite M1000 PRO microplate reader (Tecan). Fluorescence intensity was measured at 484 nm excitation/510 nm emission/5 nm bandwidth for EGFP, and at 587 nm excitation/610 nm emission/10 nm bandwidth for mCherry. Background fluorescence measured using untransfected cells was subtracted from the EGFP and mCherry fluorescence values. Then, EGFP fluorescence was normalized by mCherry fluorescence to account for variations in transfection efficiency and cell counts. […]

Entries after “also recorded” stand apart in the source; their conditions may differ.

Take `Fc1ccc(Nc2nc(NCc3ncccn3)nc(Nc3ccccc3)n2)cc1` [ASP2905, reference compound]: the “effect on cell proliferation / cellular toxicity” value with HEK293 cells is recorded as “not significantly affected”; with HEK293 cells (listed as ASP2095) it was “No cellular toxicity up to 10 μM was observed; also recorded: not cytotoxic”. For the same molecule, the fold induction at 5 µM in data set [1] was above 10.
With `Fc1ccc(Nc2nc(NCc3ncccn3)nc(Nc3ccc(F)cc3)n2)cc1` [ASP7967], the “effect on cell proliferation / cellular toxicity” value in the data set with HEK293 cells is “not significantly affected; also recorded: No cellular toxicity up to 10 μM was observed; also recorded: not cytotoxic”. The fold induction at 5 µM in data set [1] is above 10.
